Measured values reported in patent publication US10870638B2, “Pyridazinone compound or its salt, and herbicide containing it” (ISHIHARA SANGYO KAISHA, LTD., priority 2016, dated 2020).

Assays:
Experiment in all cases: Test Example 1: foliar treatment, growth inhibition rate on 14th day
Type in all cases: in vivo
Settings in all cases: active ingredient amount 31 g/ha, 14th day after application
[1] = test system: barnyardgrass (Echinochloa crus-qalli L.)
Description: (§1) Upland field soil was put into a 1/300,000 hectare pot, and seeds of various plants were sown. When the respective plants reached predetermined leaf stage ((1) barnyardgrass (Echinochloa crus-[…].): 0.5 to 2.9 leaf stage, (2) crabgrass (Digitaria sanquinalis L.): 0.5 to 3.0 leaf stage, (3) green foxtail (Setaria viridis L.): 0.5 to 3.2 leaf stage, (4) wild oat (Avena fatua L.): 0.4 to 1.2 leaf stage, (5) italian ryegrass (Lolium multiflorum Lam.): 0.4 to 2.0 leaf stage, (6) redroot pigweed (Amaranthus retroflexus L.): cotyledon stage to 2.2 leaf stage, (7) rice (Oryza sativa L.): 0.2 to 2.7 leaf stage, (8) corn (Zea mays L.): 1.7 to 3.6 leaf stage, (9) wheat (Triticum aestivum L.): 1.3 to 2.3 leaf stage, (10) soybean (Glycine max Merr.); primary leaf stage), wettable powders or emulsifiable concentrates of the compounds of the present invention prepared in accordance with a conventional preparation method, were weighed so as to achieve the prescribed active ingredient amounts, and diluted with water in an amount corresponding to 1,000 liters per 1 hectare (containing 0.1 vol % of an agricultural spreader (surfactant WK manufactured by MARUWA BIOCHEMICAL Co., Ltd.)), and the spray solutions thus prepared were applied for foliar treatment by a small sprayer. On the 14th day after the application, the state of growth of the respective plants was visually observed, and the herbicidal effect was evaluated by a growth inhibition rate (%) of 0 (equivalent to the non-treated area) to 100 (complete kill).

[2] = test system: corn (Zea mays L.)
Description: as §1

[3] = test system: crabgrass (Digitaria sanquinalis L.)
Description: as §1

[4] = test system: green foxtail (Setaria viridis L.)
Description: as §1

[5] = test system: italian ryegrass (Lolium multiflorum Lam.)
Description: as §1

[6] = test system: redroot pigweed (Amaranthus retroflexus L.)
Description: as §1

[7] = test system: rice (Oryza sativa L.)
Description: as §1

[8] = test system: soybean (Glycine max Merr.)
Description: as §1

[9] = test system: wheat (Triticum aestivum L.)
Description: as §1

[10] = test system: wild oat (Avena fatua L.)
Description: as §1

| SMILES | Growth inhibition rate (%) Barnyardgrass [1] [%] | Growth inhibition rate (%) Corn [2] [%] | Growth inhibition rate (%) Crabgrass [3] [%] | Growth inhibition rate (%) Green foxtail [4] [%] | Growth inhibition rate (%) Italian ryegrass [5] [%] | Growth inhibition rate (%) Redroot pigweed [6] [%] | Growth inhibition rate (%) Rice [7] [%] | Growth inhibition rate (%) Soybean [8] [%] | Growth inhibition rate (%) Wheat [9] [%] | Growth inhibition rate (%) Wild oat [10] [%] |
| --- | --- | --- | --- | --- | --- | --- | --- | --- | --- | --- |
| CC(=O)Oc1c(C)nn(C)c(=O)c1-c1cc(Oc2ncc(Cl)cn2)ccc1C [Compound 2-124] | 85 | 0 | 80 | 80 | 0 | 30 | 0 | 0 | 0 | 0 |
| CC(=O)Oc1c(C)nn(C)c(=O)c1-c1cc(Oc2ncc(Cl)cc2C(F)(F)F)ccc1C [Compound 2-125] | 100 | 90 | 90 | 50 | 93 | 0 | 70 | 0 | 50 | 90 |
| CC(=O)Oc1c(C)nn(C)c(=O)c1-c1cc(Oc2ncc(Cl)cc2Cl)ccc1C [Compound 2-128] | 85 | 75 | 83 | 75 | 93 | 0 | 45 | 0 | 60 | 88 |
| CC(=O)Oc1c(C)nn(C)c(=O)c1-c1cc(Oc2nccc(C(F)(F)F)c2Cl)ccc1C [Compound 2-131] | 85 | 40 | 65 | 98 | 78 | 10 | 10 | 10 | 45 | 50 |
| CC(=O)Oc1c(C)nn(C)c(=O)c1-c1cc(Oc2nc3cc(Cl)ccc3o2)ccc1C [Compound 2-139] | 90 | 65 | 98 | 90 | 98 | 0 | 98 | 10 | 95 | 98 |
| CC(=O)Oc1c(C)nn(C)c(=O)c1-c1cc(Oc2nc3ccc(C)cc3s2)ccc1C [Compound 2-152] | 85 | 0 | 20 | 85 | 35 | 0 | 78 | 0 | 75 | 0 |
| COc1ccc2nc(Oc3ccc(C)c(-c4c(OC(C)=O)c(C)nn(C)c4=O)c3)sc2c1 [Compound 2-154] | 80 | 0 | 10 | 60 | 10 | 0 | 0 | 10 | 0 | 0 |
| COC(=O)OC(C)Oc1cnn(C)c(=O)c1-c1cc(Oc2nc3ccc(Cl)cc3o2)ccc1C (stereo not shown) [Compound 2-178] | 100 | 83 | 100 | 100 | 98 | 0 | 15 | 0 | 75 | 95 |
| Cc1ccc(Oc2nc3ccc(Cl)cc3o2)cc1-c1c(O)cnn(CC(F)F)c1=O [Compound 2-179] | 88 | 75 | 98 | 100 | 0 | 0 | 0 | 0 | 10 | 0 |
| Cc1ccc(Oc2nc3cc(Br)ccc3o2)cc1-c1c(O)cnn(C)c1=O [Compound 2-183] | 95 | 50 | 98 | 98 | 98 | 0 | 90 | 30 | 90 | 95 |
| Cc1ccc(Oc2nc3cc(F)ccc3o2)cc1-c1c(O)cnn(C)c1=O [Compound 2-184] | 95 | 40 | 95 | 99 | 35 | 0 | 60 | 30 | 10 | 30 |
| Cc1ccc(Oc2nc3cccc(Cl)c3o2)cc1-c1c(O)cnn(C)c1=O [Compound 2-185] | 93 | 10 | 85 | 88 | 0 | 0 | 0 | 20 | 0 | 0 |
| Cc1ccc(Oc2nc3ccc(Cl)cc3o2)cc1-c1c(O)cnn(CC2CC2)c1=O [Compound 2-186] | 90 | 98 | 99 | 99 | 0 | 0 | 0 | 15 | 0 | 25 |
